Like-named read-outs stand apart in the source and are kept apart here.
Experiments:
MetRS (T. brucei) = MetRS (T. brucei) (Trypanosoma brucei brucei, UniProt Q38C91); experiment: MetRS (T. brucei) ATP depletion assay using Kinase-Glo; type: biochemical
T. brucei = experiment: Growth inhibition assay of T. brucei cell cultures (Alamar Blue, 48 h); type: cell-based
[1] = Trypanosoma brucei; read-out: B) T. brucei EC50

MetRS (T. brucei), sequence (Q38C91 entry or part of it): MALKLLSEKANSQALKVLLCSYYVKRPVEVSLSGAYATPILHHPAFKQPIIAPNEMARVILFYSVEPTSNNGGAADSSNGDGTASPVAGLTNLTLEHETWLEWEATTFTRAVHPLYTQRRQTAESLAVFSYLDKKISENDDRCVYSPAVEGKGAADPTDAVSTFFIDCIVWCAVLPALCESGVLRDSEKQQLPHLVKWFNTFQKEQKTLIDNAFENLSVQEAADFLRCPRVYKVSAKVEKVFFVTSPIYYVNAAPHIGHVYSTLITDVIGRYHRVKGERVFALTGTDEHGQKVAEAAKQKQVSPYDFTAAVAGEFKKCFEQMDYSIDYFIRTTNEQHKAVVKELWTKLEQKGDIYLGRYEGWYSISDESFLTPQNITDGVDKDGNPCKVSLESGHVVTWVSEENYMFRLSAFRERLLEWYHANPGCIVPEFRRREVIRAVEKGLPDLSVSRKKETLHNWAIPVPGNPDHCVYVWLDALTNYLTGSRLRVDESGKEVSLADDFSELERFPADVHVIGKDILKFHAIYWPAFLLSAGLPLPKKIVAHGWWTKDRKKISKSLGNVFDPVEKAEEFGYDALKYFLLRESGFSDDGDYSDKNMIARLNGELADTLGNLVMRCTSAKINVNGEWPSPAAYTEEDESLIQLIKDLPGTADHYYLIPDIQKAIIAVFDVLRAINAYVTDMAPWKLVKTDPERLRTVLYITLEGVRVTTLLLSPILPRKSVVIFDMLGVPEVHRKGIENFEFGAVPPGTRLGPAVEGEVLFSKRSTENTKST

Structure (SMILES) | IC50 (MetRS (T. brucei)) | EC50 (T. brucei; [1]) | EC50 (T. brucei; read-out: B) T. brucei EC50)
CC(Cc1nc2cc(F)c(Cl)cc2[nH]1)NCc1cc(Cl)cc(Cl)c1 (centres unmarked) [Compound 1824, [1-(6-chloro-5-fluoro-1H-1,3-benzodiazol-2-yl)propan-2-yl][(3,5-dichlorophenyl)methyl]amine] | 160 nM | 2240 nM | 
Clc1cc(Cl)cc(CO[C@H]2CCCN(c3nc4nc(Cl)ccc4[nH]3)C2)c1 [Compound 1898] | 196 nM | 8800 nM | 
Clc1cc(Cl)cc(CNCC2CCN2c2nc3nc(Cl)ccc3[nH]2)c1 (centres unmarked) [Compound 1915, 1-(1-(5-chloro-1H-imidazo[4,5-b]pyridin-2-yl)azetidin-2-yl)-N-(3,5-dichlorobenzyl)methanamine] | 170 nM | 3100 nM | 
O=C(NCc1nc2cccnc2[nH]1)OCc1ccccc1 [Compound 1699, benzyl N-{3H-imidazo[4,5-b]pyridin-2-ylmethyl}carbamate] | 13100 nM | > 10000 nM | 
Clc1cc(Cl)cc(CNC2CN(c3nc4nc(Cl)ccc4[nH]3)C2)c1 [Compound 1864, 1-{5-chloro-1H-imidazo[4,5-b]pyridin-2-yl}-N-[(3,5-dichlorophenyl)methyl]azetidin-3-amine] | 2170 nM | > 20000 nM | 
Clc1ccc(CN2CCC[C@H](c3nc4cc(Cl)ccc4[nH]3)C2)c(Cl)c1 [Compound 1837, (S)-5-chloro-2-(1-(2,4-dichlorobenzyl)piperidin-3-yl)-1H-benzo[d]imidazole] | 119 nM | 1340 nM | 
Clc1ccc(CN[C@@H]2CCN(c3nc4ccc(Cl)nc4[nH]3)C2)c(Cl)c1 [Compound 1848, (3R)-1-{5-chloro-3H-imidazo[4,5-b]pyridin-2-yl}-N-[(2,4-dichlorophenyl}methyl]pyrrolidin-3-amine] | 847 nM | 10600 nM | 
Clc1cc(Cl)cc(CNC2CCCC(c3nc4cc(Cl)ccc4[nH]3)C2)c1 (centres unmarked) [Compound 1840, 3-(5-chloro-1H-benzo[d]imidazol-2-yl)-N-(3,5-dichlorobenzyl) cyclohexanamine] | 580 nM | 1950 nM | 
COc1ccc(Oc2cccc(NCCc3nc4ccccc4[nH]3)n2)c(Cl)c1 [Compound 1918, N-[2-(1H-1,3-benzodiazol-2-yl)ethyl]-6-(2-chloro-4-methoxyphenoxy)pyridin-2-amine] | 1110 nM | 9560 nM | 
O=C(COc1ccc(Cl)cc1Cl)NCc1cc2ccccc2[nH]1 [Compound 1674, 2-(2,4-dichlorophenoxy)-N-(1H-indol-2-ylmethyl)acetamide] | 23000 nM | > 20000 nM | 
Clc1cc(Cl)cc(NC[C@H]2CCCN(c3nc4nc(Cl)ccc4[nH]3)C2)c1 [Compound 1922, (R)-3,5-dichloro-N-((1-(5-chloro-1H-imidazo[4,5-b]pyridin-2-yl)piperidin-3-yl)methyl)aniline] | 140 nM | 2760 nM | 
O=C(CCOc1ccc(Cl)cc1Cl)NCc1nc2cccnc2[nH]1 [Compound 1704, 3-(2,4-dichlorophenoxy)-N-{3H-imidazo[4,5-b]pyridin-2-ylmethyl}propanamide] | 280 nM | 8610 nM | 
Fc1ccc2[nH]c(C3CCCN(CCc4cc(Cl)cc(Cl)c4)C3)nc2n1 (centres unmarked) [Compound 1798, 5-fluoro-2-(1-(3,5-dichlorophenethyl)piperidin-3-yl)-1H-imidazo[4,5-b]pyridine] | > 10000 nM | 1230 nM | 
CC(=O)N(Cc1cc(Cl)cc(Cl)c1)C1CCCC(c2nc3cc(Cl)cnc3[nH]2)C1 (centres unmarked) [Compound 1842, N-(3-(6-chloro-3H-imidazo[4,5-b]pyridin-2-yl)cyclohexyl)-N-(3,5-dichlorobenzyl)acetamide] | > 10000 nM | 8580 nM | 
CN(Cc1nc2ccccc2[nH]1)C(=O)CCOc1ccc(Cl)cc1Cl [Compound 1727, N-(1H-1,3-benzodiazol-2-ylmethyl)-3-(2,4-dichlorophenoxy)-N-methylpropanamide] | 5090 nM | > 20000 nM | 
O=C(CCOc1ccc(Cl)cc1Cl)NC1(c2nc3ccccc3[nH]2)CC1 [Compound 1738, N-(1-(1H-benzo[d]imidazol-2-yl)cyclopropyl)-3-(2,4-dichlorophenoxy)propanamide] | > 10000 nM | > 20000 nM | 
NC(CC(=O)NCc1cc(Cl)cc(Cl)c1)c1nc2ccc(Cl)nc2[nH]1 (centres unmarked) [Compound 1969, 3-amino-3-(5-chloro-3H-imidazo[4,5-b]pyridin-2-yl)-N-(3,5-dichlorobenzyl)propanamide] | 782 nM | 7960 nM | 
CC(Cc1nc2ccc(C(F)(F)F)cc2[nH]1)NCc1cc(Cl)cc(Cl)c1 (centres unmarked) [Compound 1825, [(3,5-dichlorophenyl)methyl]({1-[6-(trifluoromethyl)-1H-1,3-benzodiazol-2-yl]propan-2-yl})amine] | 1560 nM | 3650 nM | 
O=C(/C=C/Oc1ccc(Cl)cc1Cl)NNc1nc2ccccc2[nH]1 [Compound 1765, (2E)-N′-(1H-1,3-benzodiazol-2-yl)-3-(2,4-dichlorophcnoxy)prop-2-enehydrazide] | > 10000 nM | > 20000 nM | 

Structure (SMILES) | IC50 (MetRS (T. brucei)) | EC50 (T. brucei; [1]) | EC50 (T. brucei; read-out: B) T. brucei EC50)
Fc1ccc2nc(NCCCNc3ccc(Cl)cc3Cl)[nH]c2n1 [Compound 1956, N1-(2,4-dichlorophenyl)-N3-(5-fluoro-3H-imidazo[4,5-b]pyridin-2-yl)propane-1,3-diamine] | 325 nM | 1550 nM | 
CC(Cc1nc2ccc(Br)cc2[nH]1)NCc1cc(Cl)cc(Cl)c1 (centres unmarked) [Compound 1821, [1-(6-bromo-1H-1,3-benzodiazol-2-yl)propan-2-yl][(3,5-dichlorophenyl)methyl]amine] | 54 nM | 1670 nM | 
Clc1cc(Cl)c(Cl)c(CN[C@H]2CCCN(c3nc4nc(Cl)c(Br)cc4[nH]3)C2)c1 [Compound 1905, (S)-1-(6-bromo-5-chloro-1H-imidazo[4,5-b]pyridin-2-yl)-N-(2,3,5-trichlorobenzyl)piperidin-3-amine] | 4310 nM | > 20000 nM | 
O=C(Cc1ccc(Cl)cc1Cl)N1CCCC(c2nc3ccccc3[nH]2)C1 (centres unmarked) [Compound 1731, 1-(3-(1H-benzo[d]imidazol-2-yl)piperidin-1-yl)-2-(2,4-dichlorophenyl) ethanone] | 5000 nM | > 20000 nM | 
Clc1cc(Cl)cc(CNCc2nc3ccc(Br)cc3[nH]2)c1 [Compound 1853, N-(3,5-dichlorobenzyl)(6-bromo-1H-benzo[d]imidazol-2-yl)methanamine] | > 10000 nM | > 20000 nM | 
CN(Cc1nc2ccccc2[nH]1)C(=O)OCCc1ccc(Cl)cc1Cl [Compound 1728, 2-(2,4-dichlorophenyl)ethyl N-(1H-1,3-benzodiazol-2-ylmethyl)-N-methylcarbamate] | > 10000 nM | > 20000 nM | 
O=C(CC(=O)Nc1ccc(Cl)cc1Cl)NCc1nc2ccccc2[nH]1 [Compound 1803, N1-((1H-benzo[d]imidazol-2-yl)methyl)-N3-(2,4-dichlorophenyl)malonamide] | > 10000 nM | > 20000 nM | 
Clc1cc(Cl)cc(CN2CCC[C@H](c3nc4cc(Cl)ccc4[nH]3)C2)c1 [Compound 1813, (S)-5-chloro-2-(1-(3,5-dichlorobenzyl)piperidin-3-yl)-1H-benzo[d]imidazole] | 747 nM | 1380 nM | 
O=C1CN(Cc2cc(Cl)cc(Cl)c2)CCN1Cc1nc2ccccc2[nH]1 [Compound 1748, 1-((1H-benzo[d]imidazol-2-yl)methyl)-4-(3,5-dichlorobenzyl)piperazin-2-one] | > 10000 nM | > 10000 nM | 
O=C(NCc1cc(Cl)cc(Cl)c1)NCc1nc2ccc(Cl)nc2[nH]1 [Compound 1991, 3-({5-chloro-3H-imidazo[4,5-b]pyridin-2-yl}methyl)-1-[(3,5-dichlorophenyl)methyl]urea] | 18 nM | 2070 nM | 
OC1NC(Cc2ccc(Cl)cc2Cl)=CN1Cc1nc2ccccc2[nH]1 (centres unmarked) [Compound 1936, 3-((1H-benzo[d]imidazol-2-yl)methyl)-5-(2,4-dichlorobenzyl)-2,3-dihydro-1H-imidazol-2-ol] | 65 nM | 1830 nM | 
Clc1ccc(CCNCc2nc3nc(Cl)ccc3[nH]2)c(Cl)c1 [Compound 1892, ({5-chloro-3H-imidazo[4,5-b]pyridin-2-yl}methyl)[2-(2,4-dichlorophenyl)ethyl]amine] | 33 nM | 1550 nM | 
CC(=O)N(Cc1cc(Cl)cc(Cl)c1)[C@@H]1CCC[C@H](c2nc3nc(Cl)ccc3[nH]2)C1 [Compound 1859, N-((1R,3S)-3-(5-chloro-1H-imidazo[4,5-b]pyridin-2-yl)cyclohexyl)-N-(3,5-dichlorobenzyl)acetamide] | 1430 nM | > 20000 nM | 
CC(=O)N(Cc1cc(Cl)cc(Cl)c1)C1CCCC(c2nc3cc(F)ccc3[nH]2)C1 (centres unmarked) [Compound 1860, N-(3,5-dichlorobenzyl)-N-(3-(5-fluoro-1H-benzo[d]imidazol-2-yl)cyclohexyl)acetamide] | 6900 nM | 8570 nM | 
O=C(Cc1ccc(Cl)cc1Cl)NCc1nc2cnc(Cl)cc2[nH]1 [Compound 1880, N-({6-chloro-1H-imidazo[4,5-c]pyridin-2-yl}methyl)-2-(2,4-dichlorophenyl)acetamide] | 214 nM | 8400 nM | 
O=C(Nc1cccc(-c2nc3ccc(Cl)cc3[nH]2)c1)c1cc(Cl)cc(Cl)c1 [Compound 1953, 3,5-dichloro-N-[3-(6-chloro-1H-1,3-benzodiazol-2-yl)phenyl]benzamide] | > 10000 nM | 903 nM | 812 nM
COC(=O)N(CCCNc1nc2ccc(F)nc2[nH]1)Cc1cc(Cl)cc(Cl)c1 [Compound 1964, methyl 3,5-dichlorobenzyl3-(5-fluoro-3H-imidazo[4,5-b]pyridin-2-ylamino)propylcarbamate] | 17 nM | 36.6 nM | 
O=C(NCc1nc2ccc(Cl)nc2[nH]1)Nc1cc(Cl)cc(Cl)c1 [Compound 1890, 1-((5-chloro-1H-imidazo[4,5-b]pyridin-2-yl)methyl)-3-(3,5-dichlorophenyl)urea] | 78 nM | 6220 nM | 
CCNc1c(Cl)cc(Cl)cc1CN[C@H]1CCCN(c2nc3nc(Cl)ccc3[nH]2)C1 [Compound 1940, (S)-1-(5-chloro-1H-imidazo[4,5-b]pyridin-2-yl)-N-(3,5-dichloro-2-(ethylamino)benzyl)piperidin-3-amine] | 42 nM | 359 nM | 
